# Assay results as given in patent publication US11524943B1 (Vivace Therapeutics, Inc., priority 2017, dated 2022).
# Tested on: HEK293T cells stably transfected with 8×TBD luciferase reporter and pRLTK
# Test: YAP Reporter Assay (8×TBD firefly luciferase reporter)
# Assay type: cell-based
# Settings: Homo sapiens, HEK-293T; HEK293T 8×TBD reporter cells, 24-hr incubation, top concentration 3 μM, 1:3 dilution, 10 points
# Procedure: HEK293T cells stably transfected with 8×TBD luciferase reporter and pRLTK in 384-well plates were treated with the test compounds, starting from 3 μM (final concentration in assay plate), 1:3 dilution, and 10 points in quadruplicates. Post 24-hr incubation with compounds at 37° C. and 5% CO2, cells were lysed and 8×TBD-driven firefly luciferase and control TK-driven renilla luciferase activities were measured using Promega Dual-Luciferase Reporter Assay System.
# Reagents: The reagents used for this study are: DMEM: Invitrogen #11960077, Dual-Glo Luciferase Assay System: Promega-E2980, Puromycin Dihydrochloride: Invitrogen-A1113803, 384-well plate: PerkinElmer-6007480, L-GLUTAMINE: Invitrogen-25030164, Hygromycin B: Invitrogen-10687010, and Penicillin-Streptomycin: Merk-TMS-AB2-C
# Media: The media used for this assay were: Culture Medium: DMEM+1 ug/mL puromycin+200 ug/mL hygromycin (with 10% FBS+1 mM L-glutamine); and Assay Medium: DMEM (with 10% FBS+1 mM L-glutamine+1×P/S).
# Cell Plating: The appropriate media was warmed at 37° C. by water bath: Culture Medium, Assay Medium, 1*D-PBS, 0.05% trypsin-EDTA. The cells were trypsinized after removing all media, then washed with 1* sterile D-PBS and then with 2 ml 0.05% trypsin-EDTA. The cells were then incubated at RT for one minute. Then 10 ml/75 cm2 flask Assay Medium was added to each flask. Using a 10 ml pipette, the cells were then gently resuspended in the media, until the clumps completely disappeared. The cells were then transferred into 50 ml centrifuge tubes and were centrifuged at 800 rpm for 5 mins. The medium was removed and the cells were resuspended with Assay Medium. An aliquot of cells was used to count the cell density (cells/ml). The cell suspension was then diluted with Assay Medium to a concentration of 6×10^4 cells/ml. 50 ul cells suspension was then plated to 384-well plate (PerkinElmer-6007480), 3×10^3 cells/well and the cells were incubated in an incubator at 37° C., 5% CO2.
# Compound Treatment: In the afternoon (incubation of the plate with 3-4 hrs), the test compounds were added by Echo, starting from 3 uM (final concentration in the assay plate), 1:3 dilution, 10 points, quadruplicates. The plate was placed at 37° C., 5% CO2 incubator for 24 hrs.
# Detection: The Dual-Glo Luciferase Reagent was prepared by transferring the contents of one bottle of Dual-Glo Luciferase Buffer to one bottle of Dual-Glo Luciferase Substrate to create the Dual-Glo Luciferase Reagent. Mixing was performed by inversion until the substrate was thoroughly dissolved. After mixing, the reagent was aliquoted into 15 ml tubes. In the afternoon (24 hrs post compound treatment), the DMEM+ medium in the 384 well plates were aspirated by Microplate Washer.
# Measuring firefly luciferase activity: 20 ul Dual-Glo Luciferase Reagent was added to the 384-well plates. The plates were protected from light to prevent interference with the assay. The plates were shaken for 1 min followed centrifuging plates at 1000 rpm for 30 seconds. After waiting at least 10 minutes, the firefly luminescence was measured by Envision.
# Measuring renilla luciferase activity: 20 ul Stop-Glo Reagent was added to the 384-well plates. The plates were shaken for 1 min and then centrifuged at 1000 rpm for 30 seconds. After waiting at least 10 minutes, the renilla luminescence was measured by Envision.
# Compound IC50 and maximum inhibition on the firefly luciferase and renilla luciferase activities were reported separately.
row,Structure (SMILES),IC50
1,"Cn1cnc(-c2cc(C(=O)NC3CC3)ccc2Nc2ccc(C(F)(F)F)cc2)c1 [Compound 37, N-cyclopropyl-3-(1-methylimidazol-4-yl)-4-[4 (trifluoromethyl)anilino] benzamide]",≤ 100 nM
2,"Cn1cnc(-c2cc(C(=O)NS(N)(=O)=O)ccc2Nc2ccc(C(F)(F)F)cc2)c1 [Compound 38, 3-(1-methylimidazol-4-yl)-N-sulfamoyl-4-[4-(trifluoromethyl)anilino] benzamide]",≤ 100 nM
3,"O=C(O)c1ccc(Nc2ccc(C(F)(F)F)cc2)c(-c2ccccn2)c1 [Compound 39, 3-(pyridin-2-yl)-4-((4-(trifluoromethyl)phenyl)amino) benzoic acid]",≤ 100 nM
4,"O=C(O)c1ccc(Nc2ccc(C(F)(F)F)cc2)c(-c2ncccn2)c1 [Compound 40, 3-(pyrimidin-2-yl)-4-((4-(trifluoromethyl)phenyl)amino) benzoic acid]",≤ 100 nM
5,"O=C(O)c1ccc(Nc2ccc(C(F)(F)F)cc2)c(-c2cscn2)c1 [Compound 41, 3-(thiazol-4-yl)-4-((4-(trifluoromethyl)phenyl)amino) benzoic acid]",≤ 100 nM
6,"O=C(O)c1ccc(Nc2ccc(C(F)(F)F)cc2)c(-c2nccs2)c1 [Compound 42, 3-(thiazol-2-yl)-4-((4-(trifluoromethyl)phenyl)amino) benzoic acid]",≤ 100 nM
7,"O=C(O)c1ccc(Nc2ccc(C(F)(F)F)cc2)c(-c2cnccn2)c1 [Compound 43, 3-(pyrazin-2-yl)-4-((4-(trifluoromethyl)phenyl)amino) benzoic acid]",≤ 100 nM
8,"Cn1nnc(-c2cc(C(=O)NCCOCCOCCN)ccc2Nc2ccc(C(F)(F)F)cc2)n1 [Compound 44, N-(2-(2-(2-aminoethoxy)ethoxy)ethyl)-3-(2-methyl-2H-tetrazol-5-yl)-4-((4-(trifluoromethyl)phenyl)amino) benzamide]",100 to 1000 nM
9,"CC(=O)NCCOCCOCCNC(=O)c1ccc(Nc2ccc(C(F)(F)F)cc2)c(-c2nnn(C)n2)c1 [Compound 45, N-(2-(2-(2-acetamidoethoxy)ethoxy)ethyl)-3-(2-methyl-2H-tetrazol-5-yl)-4-((4-(trifluoromethyl)phenyl)amino) benzamide]",≤ 100 nM
10,"O=C(O)c1ccc(Nc2ccc(C(F)(F)F)cc2)c(-c2cccnn2)c1 [Compound 46, 3-pyridazin-3-yl-4-[4-(trifluoromethyl)anilino] benzoic acid]",≤ 100 nM
11,"Cn1nnc(-c2cc(C(=O)NCCOCCOCCNC(=O)OC(C)(C)C)ccc2Nc2ccc(C(F)(F)F)cc2)n1 [Compound 47, tert-butyl (2-(2-(2-(3-(2-methyl-2H-tetrazol-5-yl)-4-((4-(trifluoromethyl)phenyl)amino)benzamido)ethoxy)ethoxy)ethyl)carbamate]",100 to 1000 nM
12,"O=C(O)c1ccc(Nc2ccc(C(F)(F)F)cc2)c(-c2cc(F)ccn2)c1 [Compound 49, 3-(4-fluoro-2-pyridyl)-4-[4-(trifluoromethyl)anilino] benzoic acid]",≤ 100 nM
13,COc1ccnc(-c2cc(C(=O)O)ccc2Nc2ccc(C(F)(F)F)cc2)c1 [Compound 50],≤ 100 nM
14,"O=C(O)c1ccc(Nc2ccc(C(F)(F)F)cc2)c(-c2ccc(F)cn2)c1 [Compound 51, 3-(5-fluoro-2-pyridyl)-4-[4-(trifluoromethyl)anilino] benzoic acid]",≤ 100 nM
15,"O=C(O)c1ccc(Nc2ccc(C(F)(F)F)cc2)c(-c2ccc(Cl)cn2)c1 [Compound 52, 3-(5-chloro-2-pyridyl)-4-[4 (trifluoromethyl)anilino] benzoic acid]",≤ 100 nM
16,"COC(=O)c1ccc(Nc2ccc(C(F)(F)F)cc2)c(-c2nnc(C3CC3)o2)c1 [Compound 53, methyl 3-(5-cyclopropyl-1,3,4-oxadiazol-2-yl)-4-((4-(trifluoromethyl)phenyl)amino)benzoate]",≤ 100 nM
17,"O=C(O)c1ccc(Nc2ccc(C(F)(F)F)cc2)c(-c2nnc(C3CC3)o2)c1 [Compound 54, 3-(5-cyclopropyl-1,3,4-oxadiazol-2-yl)-4-((4-(trifluoromethyl)phenyl)amino) benzoic acid]",≤ 100 nM
18,"O=C(O)c1ccc(Nc2ccc(C(F)(F)F)cc2)c(-c2cc(Cl)ccn2)c1 [Compound 55, 3-(4-chloro-2-pyridyl)-4-[4-(trifluoromethyl)anilino] benzoic acid]",≤ 100 nM
19,"COC(=O)c1ccc(Nc2ccc(C(F)(F)F)cc2)c(-c2cc(N)ncn2)c1 [Compound 56, methyl 3-(6-aminopyrimidin-4-yl)-4-[4-(trifluoromethyl)anilino] benzoate]",≤ 100 nM
20,"O=C(O)c1ccc(Nc2ccc(C(F)(F)F)cc2)c(-c2cocn2)c1 [Compound 57, 3-(oxazol-4-yl)-4-((4-(trifluoromethyl)phenyl)amino) benzoic acid]",≤ 100 nM
21,"O=C(O)c1ccc(Nc2ccc(C(F)(F)F)cc2)c(-c2nnc(C(F)(F)F)s2)c1 [Compound 58, 4-[4-(trifluoromethyl)anilino]-3-[5-(trifluoromethyl)-1,3,4-thiadiazol-2-yl]benzoic acid]",≤ 100 nM
22,"O=C(O)c1ccc(Nc2ccc(C(F)(F)F)cc2)c(-c2nnc(C3CC3)s2)c1 [Compound 59, 3-(5-cyclopropyl-1,3,4-thiadiazol-2-yl)-4-((4-(trifluoromethyl)phenyl)amino) benzoic acid]",≤ 100 nM
23,"O=C(O)c1ccc(Nc2ccc(C(F)(F)F)cc2)c(-c2ccncn2)c1 [Compound 60, 3-pyrimidin-4-yl-4-[4-(trifluoromethyl)anilino] benzoic acid]",100 to 1000 nM
24,"O=C(O)c1ccc(Nc2ccc(C(F)(F)F)cc2)c(-c2ncco2)c1 [Compound 61, 3-(oxazol-2-yl)-4-((4-(trifluoromethyl)phenyl)amino) benzoic acid]",≤ 100 nM
25,"Cn1nnc(-c2cc(C(=O)NCCOCCOCCOCCOCCNC(=O)OC(C)(C)C)ccc2Nc2ccc(C(F)(F)F)cc2)n1 [Compound 63, tert-butyl (1-(3-(2-methyl-2H-tetrazol-5-yl)-4-((4-(trifluoromethyl)phenyl)amino)phenyl)-1-oxo-5,8,11,14-tetraoxa-2-azahexadecan-16-yl)carbamate]",100 to 1000 nM
26,"COCC(=O)NCCOCCOCCNC(=O)c1ccc(Nc2ccc(C(F)(F)F)cc2)c(-c2nnn(C)n2)c1 [Compound 64, 3-(2-methyl-2H-tetrazol-5-yl)-N-(4-oxo-2,8,11-trioxa-5-azatridecan-13-yl)-4-((4-(trifluoromethyl)phenyl)amino) benzamide]",100 to 1000 nM
27,"COCCC(=O)NCCOCCOCCNC(=O)c1ccc(Nc2ccc(C(F)(F)F)cc2)c(-c2nnn(C)n2)c1 [Compound 65, 3-(2-methyl-2H-tetrazol-5-yl)-N-(5-oxo-2,9,12-trioxa-6-azatetradecan-14-yl)-4-((4-(trifluoromethyl)phenyl)amino) benzamide]",100 to 1000 nM
